Data as given in the supplement of paper PMC10307832.

Tests used:
Assay in all cases: relative viability (nuclei count vs DMSO), 5 days (fraction); higher = more cells survive
VE-821 = compound: CS(=O)(=O)c1ccc(-c2cnc(N)c(C(=O)Nc3ccccc3)n2)cc1 [VE-821]
Outline: (§1)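 Hoechst staining, done together with fixation and permeabilisation, marked nuclei for 4× imaging and MetaXpress counting. This followed 5 days without medium change after lung cancer cell lines, kept overnight at 37 °C in 1536-well plates, were pinned with five library-drug doses (not always all listed) spaced by √10 on vehicle-anchored plates. Viability is the ratio of treated-well to vehicle-well nuclei, expressed as a median across plates. Plates passed only at control CV below 25% with at least one doubling.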

Ruxolitinib = compound: N#CC[C@H](C1CCCC1)n1cc(-c2ncnc3[nH]ccc23)cn1 [Ruxolitinib]
Outline: as §1

Vismodegib = compound: CS(=O)(=O)c1ccc(C(=O)Nc2ccc(Cl)c(-c3ccccn3)c2)c(Cl)c1 [Vismodegib]
Outline: as §1

VE-821 + Alpelisib = compound: CS(=O)(=O)c1ccc(-c2cnc(N)c(C(=O)Nc3ccccc3)n2)cc1 [VE-821] + Cc1nc(NC(=O)N2CCC[C@H]2C(N)=O)sc1-c1ccnc(C(C)(C)C(F)(F)F)c1 [Alpelisib] (partner 2 µM)
Outline: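 Lung cancer cell lines were pin-tool dosed in 1536-well plates on the day after seeding, with either a lone drug or a fixed anchor-drug dose plus five library-drug doses (not always all listed) in √10 steps. Nuclei were counted on 4× images after 5 days. Relative viability is the ratio of treated-well to vehicle-well nuclei counts, with each value a median of duplicate plates.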

| Cell Line | relative viability (VE-821; 0.08 µM) | relative viability (VE-821; 0.253 µM) | relative viability (VE-821; 0.8 µM) | relative viability (VE-821; 2.53 µM) | relative viability (VE-821; 8 µM) | relative viability (Ruxolitinib; 0.08 µM) | relative viability (Ruxolitinib; 0.253 µM) | relative viability (Ruxolitinib; 0.8 µM) | relative viability (Ruxolitinib; 2.53 µM) | relative viability (Ruxolitinib; 8 µM) | relative viability (Vismodegib; 0.08 µM) | relative viability (Vismodegib; 0.253 µM) | relative viability (Vismodegib; 0.8 µM) | relative viability (Vismodegib; 2.53 µM) | relative viability (Vismodegib; 8 µM) | relative viability (VE-821 + Alpelisib; first compound 0.08 µM) | relative viability (VE-821 + Alpelisib; first compound 0.253 µM) | relative viability (VE-821 + Alpelisib; first compound 0.8 µM) | relative viability (VE-821 + Alpelisib; first compound 2.53 µM) | relative viability (VE-821 + Alpelisib; first compound 8 µM) |
| --- | --- | --- | --- | --- | --- | --- | --- | --- | --- | --- | --- | --- | --- | --- | --- | --- | --- | --- | --- | --- |
| HCC-366 | 1.06 | 1.01 | 0.85 | 0.925 | 0.191 | 1.07 | 0.984 | 1.05 | 1.03 | 0.932 | 0.997 | 1.04 | 0.998 | 0.984 | 1 | 0.654 | 0.419 | 0.123 | 0.213 | 0.0456 |
| NCI-H441 | 1.16 | 1.1 | 1.34 | 1.34 | 0.793 | 0.946 | 0.933 | 1.16 | 0.962 | 0.699 | 1.02 | 0.909 | 1.01 | 0.98 | 1.04 | 0.902 | 0.801 | 0.682 | 0.672 | 0.744 |
| COR-L 105 | 0.782 | 0.811 | 0.776 | 0.794 | 0.574 | 0.76 | 0.863 | 0.914 | 0.824 | 0.695 | 0.968 | 0.817 | 0.959 | 0.961 | 0.96 | 1 | 1 | 0.674 | 0.891 | 0.58 |
| A-427 | 1.1 | 0.878 | 0.992 | 0.986 | 0.468 | 0.982 | 1.02 | 1.12 | 0.902 | 0.844 | 1 | 0.94 | 0.933 | 0.988 | 1.01 | 1.01 | 1.03 | 1.08 | 1.12 | 0.706 |
| HCC-44 | 1 | 0.962 | 1.06 | 1.04 | 1.04 | 0.958 | 0.939 | 1.04 | 1.02 | 0.843 | 1.01 | 0.94 | 0.938 | 0.934 | 1.01 | 0.83 | 0.807 | 0.717 | 1.03 | 0.885 |
| NCI-H2170 | 0.972 | 0.932 | 1.01 | 0.966 | 0.642 | 1.05 | 0.975 | 1 | 0.924 | 0.841 | 1.03 | 0.959 | 1.01 | 0.955 | 0.993 | 0.979 | 0.808 | 0.624 | 0.777 | 0.543 |
| NCI-H2228 | 0.938 | 1.03 | 0.806 | 1.27 | 0.728 | 0.764 | 0.964 | 1.3 | 0.809 | 0.737 | 1.07 | 1.13 | 1.04 | 0.889 | 0.89 | 0.7 | 0.825 | 0.683 | 0.687 | 0.737 |
| ABC-1 | 1.09 | 0.882 | 0.907 | 1.03 | 0.749 | – | 1.01 | 1.11 | 0.882 | 0.782 | 0.963 | 0.854 | 0.96 | 0.81 | 0.988 | 1.21 | 0.854 | 0.91 | 1.03 | 0.904 |
| LOU-NH91 | 1.03 | 0.946 | 0.927 | 1.03 | 0.865 | 0.847 | 0.957 | 1.03 | 0.933 | 0.99 | 0.918 | 0.963 | 0.946 | 0.908 | 0.958 | 0.747 | 0.738 | 0.66 | 0.75 | 0.702 |
| NCI-H727 | 0.894 | 0.884 | 0.958 | 0.911 | 0.446 | 0.934 | 1.02 | 1.11 | 0.904 | 1.36 | 0.891 | 0.931 | 0.804 | 0.988 | 0.81 | 0.687 | 0.683 | 0.585 | 0.551 | 0.425 |
| NCI-H2023 | 1.1 | 0.874 | 0.672 | 0.494 | 0.172 | 1.03 | 0.835 | 1.18 | 0.9 | 0.988 | 0.925 | 0.892 | 0.95 | 1.06 | 0.98 | 0.748 | 0.588 | 0.295 | 0.547 | 0.372 |
| NCI-H1563 | 1.01 | 0.985 | 0.81 | 0.886 | 0.762 | 0.985 | 0.99 | 1.02 | 0.853 | 0.879 | 0.944 | 0.931 | 0.954 | 1.04 | 1.02 | 0.896 | 0.933 | 0.739 | 0.805 | 0.797 |
| LCLC-103H | 1.07 | 0.915 | 0.952 | 1.21 | 0.891 | 1.04 | 1.01 | 0.993 | 1.05 | 0.956 | 0.967 | 1.04 | 0.92 | 1.01 | 1.02 | 1 | 0.95 | 0.85 | 0.966 | 0.986 |
| HARA | 1.09 | 0.747 | 0.954 | 1.12 | 0.812 | 0.936 | 1.01 | 1.03 | 0.935 | 0.88 | 1 | 0.883 | 0.883 | 0.971 | 0.954 | 1.05 | 0.912 | 0.688 | 0.926 | 0.704 |
| RERF-LC-KJ | 0.986 | 0.916 | 0.878 | 0.923 | 0.786 | 0.969 | 0.933 | 1.06 | 1.01 | 0.965 | 1.03 | 0.967 | 1.03 | 0.973 | 1.04 | 0.898 | 0.774 | 0.664 | 0.799 | 0.712 |
| NCI-H2009 | 1.03 | 0.961 | 1 | 1.06 | 0.863 | 1.03 | 1.01 | 1.04 | 0.842 | 0.657 | 0.982 | 0.977 | 0.976 | 0.964 | 0.992 | 1.11 | 1.18 | 1.12 | 1.19 | 1.28 |
